The values that follow come from PMC2784364, “VX-166: a novel potent small molecule caspase inhibitor as a potential therapy for sepsis” (Critical Care, 2009).

Peptide text beside a SMILES is read from it. * marks the point of attachment. Cbz = O=C(OCc1ccccc1)*; CH2F = FC*

The test system of experiment [1] is IL-2 release from peripheral blood mononuclear cells. Put plainly: IL-2 release from anti-CD3/CD28 stimulated PBMC. In kind it is cell-based, human. As to conditions: anti-CD3/CD28 stimulated human PBMC, 24 hours; read-out: IC50, inhibition of IL-2 release. As to the method: PBMC from healthy donors were isolated as described above. To the wells of a 96-well plate previously coated with 1.5 μg/ml anti-hCD3 (Serotec, Kidlington, UK), 5 × 10^5 cells/ml and 1 μg/ml anti-hCD28 (BD Biosciences, Oxford, UK) were added. Plates were then incubated for 24 hours in the presence or absence of VX-166 or the calcineurin inhibitor FK506 (Merck Biosciences Ltd., Nottingham, UK). IL-2 release into the supernatant was subsequently determined by ELISA (R&D Systems, Abingdon, UK) following the manufacturer's instructions.

In a further experiment the test system is Jurkat cells. Nature of the experiment: Anti-Fas induced apoptosis in Jurkat cells, Annexin V. The experiment is classed as cell-based, human. As to conditions: Fas-induced apoptosis, readout not specified, data not shown; read-out: IC50 in Fas-assay. On the procedure: Jurkat cells were obtained from LGC Standards (Teddington, UK) and were grown in RPMI 1640, 10% FCS, 2 mM L-glutamine, 100 U/ml penicillin and 0.1 mg/ml streptomycin (all from Sigma Aldrich Ltd., Poole, UK) at 37°C in 5% CO2/95% humidity. Receptor- or stress-mediated apoptosis (2 × 10^5 cells/ml) was induced by addition of either anti-Fas antibody CH-11 (10 ng/ml, Millipore UK Ltd., Watford, UK), TNF-α (20 ng/ml, R&D Systems, Abingdon, UK) with cycloheximide (112 ng/ml, Sigma Aldrich Ltd., Poole, UK) or staurosporine (350 ng/ml, Sigma Aldrich Ltd., Poole, UK). VX-166 was diluted into DMSO (10 mM), further diluted in media and added at a range of concentrations. Cells were then incubated for 18 hours. Apoptotic cells were then labelled with Cy5-conjugated Annexin-V (BD Biosciences, Oxford, UK) and detected using a FMAT™ 8100 Fluorimetric Microassay Technology Reader (Applied Biosystems, Warrington, UK). For the experiments using anti-Fas antibody, apoptosis was additionally measured using a Cell Death Detection ELISA kit (Roche Diagnostics Ltd., Lewes, UK) following the manufacturer's instructions.

In experiment [2] the test system is IL-2 release from activated T-cells. The arrangement: method as in PMID 10601363. As to conditions: 50 μM; cited from earlier work.

On to `C=CC[C@@H]1/C=C(\C)C[C@H](C)C[C@H](OC)[C@H]2O[C@@](O)(C(=O)C(=O)N3CCCC[C@H]3C(=O)O[C@H](/C(C)=C/[C@@H]3CC[C@@H](O)[C@H](OC)C3)[C@H](C)[C@@H](O)CC1=O)[C@H](C)C[C@@H]2OC` [FK506, reference compound], for which the IC50 (commonly the concentration that gives 50% inhibition) in experiment [1] came to 0.0002 µM. Consider `COC(=O)C[C@H](NC(=O)[C@H](C)NC(=O)[C@@H](NC(=O)OCc1ccccc1)C(C)C)C(=O)CF` [zVAD-FMK, reference compound] (Cbz-Val-Ala-Asp(OMe)-CH2F), for which the IC50 with Jurkat cells was determined as 0.23 µM. Further, the “block of IL-2 release from activated T-cells” value in experiment [2] was “block IL-2 release”. For the compound IETD-FMK, the “block of IL-2 release from activated T-cells” value in experiment [2] is “block IL-2 release”.
